# Measurements: patent publication US8952024B2, “Herbicidal pyrimidone derivatives” (E I du Pont de Nemours and Company, priority 2009, dated 2015)
# How the values were obtained:
# Assay in all cases: Test B pre-/postemergence plant response
# Format in all cases: in vivo
# [1] = system: downy bromegrass (Bromus tectorum)
# How it was run: (§1)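 Plants treated either at seeding (loam/sand soil) or postemergence at 2 to 18 cm height, using a surfactant-containing non-phytotoxic solvent formulation. Evaluation was visual after 13 to 15 days, 0 to 100 scale relative to controls.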
# [2] = system: giant foxtail (Setaria faberii)
# How it was run: as §1
# [3] = system: goosegrass (Eleusine indica)
# How it was run: as §1
# [4] = system: green foxtail (Setaria viridis)
# How it was run: as §1
# [5] = system: johnsongrass (Sorghum halepense)
# How it was run: as §1
# kochia (Kochia scoparia) = settings: Postemergence; for Plant response rating, Kochia: scale 0 (no effect) to 100 (complete control)
# How it was run: as §1
# [6] = system: lambsquarters (Chenopodium album)
# How it was run: as §1
# [7] = system: large crabgrass (Digitaria sanguinalis)
# How it was run: as §1
# [8] = system: pigweed (Amaranthus retroflexus)
# How it was run: as §1
# [9] = system: velvetleaf (Abutilon theophrasti)
# How it was run: as §1
# [10] = system: wheat (Triticum aestivum)
# How it was run: as §1
# [11] = system: woolly cupgrass (Eriochloa villosa)
# How it was run: as §1
# [12] = system: yellow nutsedge (Cyperus esculentus)
# How it was run: as §1
# [13] = 250 g ai/ha, Preemergence, 0 to 100 scale
# [14] = Postemergence, 31 g ai/ha, scale 0 to 100 (0 no effect, 100 complete control)
# [15] = Postemergence, 62 g ai/ha, scale 0 (no effect) to 100 (complete control), 13 to 15 days
# [16] = Postemergence, 125 g ai/ha, visual rating after 13 to 15 days, scale 0 (no effect) to 100 (complete control)
# [17] = Postemergence, 250 g ai/ha, scale 0 to 100
# [18] = Preemergence, 31 g ai/ha, scale 0 to 100 (0 no effect, 100 complete control)
# [19] = Preemergence, 62 g ai/ha, scale 0 to 100 (0 no effect, 100 complete control)
# [20] = Preemergence, 125 g ai/ha, 0 to 100 scale
structure (smiles),measurement,setting,value
Cc1c(Cl)cccc1-n1c(-c2ccccc2)ncc(C(=O)C2=C(O)CCCC2=O)c1=O [Compound 40],"Plant response rating, Bromegrass, Downy",[1]; [13],10
same,"Plant response rating, Bromegrass, Downy",[1]; [14],45
same,"Plant response rating, Bromegrass, Downy",[1]; [15],50
same,"Plant response rating, Bromegrass, Downy",[1]; [16],70
same,"Bromegrass, Downy plant response rating",[1]; [17],85
same,"Plant response rating, Bromegrass, Downy",[1]; [18],0
same,"Plant response rating, Bromegrass, Downy",[1]; [19],0
same,"Bromegrass, Downy plant response rating",[1]; [20],5
same,"Plant response rating, Foxtail, Giant",[2]; [13],98
same,"Plant response rating, Foxtail, Giant",[2]; [14],100
same,"Plant response rating, Foxtail, Giant",[2]; [15],100
same,"Plant response rating, Foxtail, Giant",[2]; [16],100
same,"Foxtail, Giant plant response rating",[2]; [17],100
same,"Plant response rating, Foxtail, Giant",[2]; [18],10
same,"Plant response rating, Foxtail, Giant",[2]; [19],65
same,"Foxtail, Giant plant response rating",[2]; [20],80
same,"Plant response rating, Goosegrass",[3]; [13],100
same,"Plant response rating, Goosegrass",[3]; [15],90
same,"Plant response rating, Goosegrass",[3]; [16],95
same,Goosegrass plant response rating,[3]; [17],98
same,"Plant response rating, Goosegrass",[3]; [18],80
same,Goosegrass plant response rating,[3]; [20],100
same,"Plant response rating, Foxtail, Green",[4]; [13],100
same,"Plant response rating, Foxtail, Green",[4]; [14],90
same,"Plant response rating, Foxtail, Green",[4]; [15],95
same,"Plant response rating, Foxtail, Green",[4]; [16],95
same,"Foxtail, Green plant response rating",[4]; [17],95
same,"Plant response rating, Foxtail, Green",[4]; [18],0
same,"Plant response rating, Foxtail, Green",[4]; [19],85
same,"Foxtail, Green plant response rating",[4]; [20],85
same,"Plant response rating, Johnsongrass",[5]; [13],90
same,"Plant response rating, Johnsongrass",[5]; [16],75
same,Johnsongrass plant response rating,[5]; [17],100
same,"Plant response rating, Johnsongrass",[5]; [18],10
same,"Plant response rating, Johnsongrass",[5]; [19],80
same,Johnsongrass plant response rating,[5]; [20],85
same,"Plant response rating, Kochia","kochia (Kochia scoparia); 62 g ai/ha, 13 to 15 days",0
same,"Plant response rating, Kochia","kochia (Kochia scoparia); 125 g ai/ha, visual rating after 13 to 15 days",10
same,Kochia plant response rating,"kochia (Kochia scoparia); 250 g ai/ha, scale 0 to 100",75
same,"Plant response rating, Lambsquarters",[6]; [13],100
same,"Plant response rating, Lambsquarters",[6]; [15],100
same,"Plant response rating, Lambsquarters",[6]; [16],100
same,Lambsquarters plant response rating,[6]; [17],100
same,"Plant response rating, Lambsquarters",[6]; [18],100
same,"Plant response rating, Lambsquarters",[6]; [19],100
same,Lambsquarters plant response rating,[6]; [20],100
same,"Plant response rating, Crabgrass, Large",[7]; [13],100
same,"Plant response rating, Crabgrass, Large",[7]; [14],85
same,"Plant response rating, Crabgrass, Large",[7]; [15],98
same,"Plant response rating, Crabgrass, Large",[7]; [16],100
same,"Crabgrass, Large plant response rating",[7]; [17],100
same,"Plant response rating, Crabgrass, Large",[7]; [18],70
same,"Plant response rating, Crabgrass, Large",[7]; [19],98
same,"Crabgrass, Large plant response rating",[7]; [20],100
same,"Plant response rating, Pigweed",[8]; [13],100
same,"Plant response rating, Pigweed",[8]; [15],98
same,"Plant response rating, Pigweed",[8]; [16],100
same,"Plant response rating, Pigweed",[8]; [18],98
same,Pigweed plant response rating,[8]; [20],100
same,"Plant response rating, Velvetleaf",[9]; [13],100
same,"Plant response rating, Velvetleaf",[9]; [15],100
same,"Plant response rating, Velvetleaf",[9]; [16],100
same,"Plant response rating, Velvetleaf",[9]; [18],80
same,Velvetleaf plant response rating,[9]; [20],100
same,"Plant response rating, Wheat",[10]; [15],20
same,"Plant response rating, Wheat",[10]; [16],30
same,"Plant response rating, Wheat",[10]; [18],0
same,Wheat plant response rating,[10]; [20],0
same,"Plant response rating, Cupgrass, Woolly",[11]; [13],85
same,"Plant response rating, Cupgrass, Woolly",[11]; [14],90
same,"Plant response rating, Cupgrass, Woolly",[11]; [15],95
same,"Plant response rating, Cupgrass, Woolly",[11]; [16],98
same,"Cupgrass, Woolly plant response rating",[11]; [17],98
same,"Plant response rating, Cupgrass, Woolly",[11]; [18],0
same,"Plant response rating, Cupgrass, Woolly",[11]; [19],50
same,"Cupgrass, Woolly plant response rating",[11]; [20],70
same,"Plant response rating, Nutsedge, Yellow",[12]; [13],85
same,"Plant response rating, Nutsedge, Yellow",[12]; [15],35
same,"Plant response rating, Nutsedge, Yellow",[12]; [16],55
same,"Plant response rating, Nutsedge, Yellow",[12]; [18],10
same,"Nutsedge, Yellow plant response rating",[12]; [20],65
